Laboratory results taken from patent publication US6365622B1 (Sigma-Tau HealthScience S.p.A., priority 1998, dated 2002).

What was measured:
[1] = test system: cerebral ischaemia induced by occluding the middle cerebral artery (MCA); assay: Neuroprotective activity in experimental cerebral ischaemia (endothelin-1 occlusion of the MCA); assay type: in vivo; settings: rat, i.v. 5 minutes after endothelin; acetyl L-carnitine 50 mg/kg, carnitine mixture 50 mg/kg, α-lipoic acid 20 mg/kg; read three days later
Experimental: Occlusion of the artery is induced, and the resulting ischaemia can be checked three days after this procedure by transcardiac perfusion of a solution of paraformaldehyde (4% in PBS).
After removing the brain, it was placed in fixative containing 10% sucrose, and cryostatic sections ([…]) fixed with cresyl violet were examined under the optical microscope.
The volume of the infarcted area was calculated according to the method described by Park (Park C. K., Anns. Neurol., 20-150, 1989).

[2] = test system: alloxan-induced hyperglycaemia; assay: Experimental diabetic hyperglycaemia test (alloxan); assay type: in vivo; settings: alloxan hyperglycaemic rat; for Serum glucose, Initial: before treatment; for Serum glucose, After 21 days: oral for three weeks, acetyl L-carnitine 200 mg/kg, α-lipoic acid 50 mg/kg
Experimental: Controlling serum glucose is therefore one of the most important means of preventing diseases related to diabetes. […] The hyperglycaemia was induced by subcutaneous injection of alloxan (100 mg/kg) in the rat, and those rats were considered hyperglycaemia which presented serum glucose levels above 450 mg/dl seven days after the alloxan injection.
Treatment with the test substances was given orally for a period of three weeks. At the end of this period, serum glucose was measured in the various groups of rats, both hyperglycaemic and treated.

[3] = test system: sorbitol in ocular lens and sciatic nerve of diabetic rats; assay: Sorbitol content in ocular lens and sciatic nerve in the diabetic rat (streptozotocin); assay type: in vivo; settings: i.p. eight days, acetyl L-carnitine 100 mg/kg, carnitine mixture 100 mg/kg, α-lipoic acid 25 mg/kg
Experimental: These tests were conducted in a group of rats in which diabetes was induced by means of the intravenous administration of 50 mg/kg of streptozotocin. One week after injection, serum glucose was tested and those rats were considered diabetic which presented serum glucose values above 450 mg/dl. These animals then received intraperitoneal injections, for eight consecutive days, of acetyl L-carnitine (100 mg/kg), or carnitine mixture (acetyl L-carnitine+propionyl L-carnitine+isovaleryl L-carnitine in a […] weight ratio to one another) (100 mg/kg), or (x-lipoic acid (25 mg/kg), either alone or in various combinations.
After eight days of treatment, after suitable isolation, the sorbitol concentration present in both the sciatic nerve and the ocular lens of diabetic rats was measured before and after the treatment administered.

[4] = test system: brain cells of Wistar rats; assay: Survival and growth of isolated brain cells treated with IGF-I, carnitines and α-lipoic acid; assay type: cell-based; settings: 24 hours after addition; IGF-I 25 ng/ml, acetyl L-carnitine 100 ng/ml, carnitine mixture 100 ng/ml
Experimental: To this end, brain cells of Wistar rats were isolated according to the method described by Thanguipon (Thanguipon W., Dev. Brain Res., 11, 177, 1983) and were distributed on plates with a density of 3×10^5/cm^2. To the culture medium was added cytosine arabino-furanoside ([…]) to prevent the replication of non-neuronal cells. After eight days, the cells were washed and maintained in a culture in which the serum was replaced with BME (Basal Eagles Medium, Life Technologies, Gaithersburg, Md.) containing a 5 mM KCl concentration.
Cell survival and growth in culture were observed 24 hours after addition of the substances to the medium, on 35 mm disks in contact with 10 ng/ml of fluorescein acetate according to the technique described by Jones (Jones K. H., J. Histochem. Cytochem., 33, 77, 1985). The cell count was done with a fluorescence microscope.

[5] = test system: tibial nerve after cutting the sciatic nerve in diabetic rats; assay: Sciatic nerve regeneration test in diabetic rats (alloxan, cut sciatic nerve); assay type: in vivo, rat; settings: thirty days after cutting the sciatic nerve, diet 200 mg/kg acetyl L-carnitine or carnitine mixture, 50 mg/kg α-lipoic acid
Experimental: The technique used in these tests is the one described by Fernandez (Fernandez E., Int. J. Clin. Pharmacol. Res., 10, 85, 1990).
Diabetes (serum glucose above 450 mg/dl) was induced in a group of rats by subcutaneous injection of 100 mg/kg of alloxan. […] The compounds were administered a week before cutting the sciatic nerve and for thirty days after cutting.
The sciatic nerve was cut under anaesthesia and after exposing 1 cm of it at the level of the sciatic foramen. The border of the lesion was marked with an epineural suture. Thirty days after cutting the nerve, the tissue of the tibial nerve, one of the main divisions of the sciatic nerve, was examined, after sacrificing the animals. Four cross-sections of the tibial nerve measuring approximately 4 mm in length were thus subjected to morphological and morphometric examination by means of a semiautomatic image analyser (Zeiss Videoplan Image Analyser).
The number of regenerating axons and their density per […] were counted, as well as the degenerate elements.

[6] = test system: neuromuscular conduction in diabetic rats; assay: Neuromuscular conduction test in the diabetic rat (streptozotocin); assay type: in vivo; settings: after 4 weeks
Experimental: In these tests, we induced experimental diabetes in rats by intravenously injecting the experimental animals (rats with a mean weight of 300 g) with 50 mg/kg of streptozotocin. In the animals with induced diabetes (serum glucose above 450 mg/dl) the neuromuscular conduction velocity (NMCN7) was measured. To this end, the sciatic nerve was isolated (2 cm length) and the soleus muscle was separated from the gastrocnemius and its distal tendon cut and connected up to an isometric transducer which recorded the muscular contraction force (MCF). The muscle was stimulated via the sciatic nerve by means of two electrodes inserted at a distance of 10 mm from the nerve and connected up to a stimulator.
A bipolar electrode was placed in the distal end of the muscle for displaying the electromyogram via an oscilloscope.
The NMCV was measured in m/sec, dividing the distance between the stimulation electrodes by the mean difference in latency between the start of the […] potentials evoked in the two sites. The MCF was expressed in mm.

[7] = test system: wobbler mice; assay: Motor co-ordination abnormality test in wobbler mice; assay type: in vivo; settings: oral twenty days; for percentage increase in running time: acetyl L-carnitine 200 mg/kg, carnitine mixture 200 mg/kg, α-lipoic acid 50 mg/kg, time to run 10 cm; for holding time on the edge of an inclined platform (in words): versus controls
Experimental: These tests were conducted in “wobbler mice”, that is to say animals that present an unsteady, staggering gait, an abnormal position of the paws and a reduced speed of movement. These abnormalities are related to progressive atrophy of the motoneurons and musculo-cutaneous nerve fibres, particularly as affecting the anterior limbs. The tests were conducted according to the procedure proposed by Mitsumoto (Mitsumoto H., Annal. Neurol., 36, 14, 1994). […] The examination was performed by evaluating, in the treated animals versus controls, the time that each animal holds on to the edge of an inclined platform (holding time) and also the time it takes to run a distance of 10 cm (running time).

[8] = test system: proprioceptive sensory perception abnormalities induced by cisplatin; assay: Cisplatin-induced sensory neuronal lesions (rotarod test); assay type: in vivo; settings: mouse rotarod; cisplatin 10 mg/kg s.c. seven days; oral seven days acetyl L-carnitine 300 mg/kg, carnitine mixture 300 mg/kg, α-lipoic acid 50 mg/kg
Experimental: The proprioceptive sensory perception abnormalities induced by cisplatin in the mouse were evaluated by means of the rotarod test (Apfel, S. C., Ann. Neurol., 29, 89, 1991).

[9] = Toxicological tests: high single doses, parenteral and oral; assay type: in vivo; settings: rats and mice

Row | Compound | Extent of ischaemia (volume in mm^3) due to occlusion of the MCA, Volume [1] [mm^3] | Serum glucose, Initial [2] [mg/dL] | Serum glucose, After 21 days [2] [mg/dL] | Sorbitol, Lens [3] [nmol/mg] | Sorbitol, Sciatic nerve [3] [nmol/mg] | Cell growth (% vs controls) [4] [% vs controls] | Density of tibial nerve degenerate elements (per 100 nm^2) [5] [per 100 nm^2] | Number of tibial nerve degenerate elements [5] | MCF (muscular contraction force) [6] [mm] | NMCV (neuromuscular conduction velocity) [6] [m/sec] | percentage increase in running time [7] [%] | holding time on the edge of an inclined platform (in words) [7] | Equilibrium time [8] [s] | amount administered orally without any of the animals dying ([9]; oral) | amount administered parenterally without any of the animals dying ([9]; parenteral)
1 | O=C(O)CCCCC1CCSS1 (stereo not drawn) [α-lipoic acid] | 34.5 ± 2.1 | 502.8 ± 36 | 360.4 ± 30 | 30.8 ± 3.2 | 1.08 ± 0.10 | 5 ± 0.39 | 0.20 ± 0.04 | 590 ± 0.70 | 41.9 ± 3.3 | 40.1 ± 1.5 | 40 ± 3.9 | improves | 9.9 ± 0.8 |  | 
2 | IGF-I: insulin-like growth factor, a peptide of the proinsulin group (somatomedins) |  |  |  |  |  | 45 ± 2.8 |  |  |  |  |  |  |  |  | 
3 | N.N.[Cl][Pt][Cl] [Cisplatin, cisplatin] |  |  |  |  |  |  |  |  |  |  |  |  | 8.4 ± 0.8 |  | 
4 | CC(=O)O[C@H](CC(=O)[O-])C[N+](C)(C)C [Acetyl L-carnitine, acetyl L-carnitine] | 25.6 ± 1.5 | 509.5 ± 28 | 405.9 ± 25 | 32.7 ± 2.5 | 1.15 ± 0.11 | 5 ± 0.51 | 0.16 ± 0.02 | 560 ± 61 | 40.6 ± 3.4 | 38.5 ± 1.9 | 35 ± 3.2 | improves | 9.5 ± 0.6 | more than 500 mg/kg | more than 250 mg/kg
